According to patent US20210147343A1 (priority 2018, published 2021):
Like-named read-outs stand apart in the source and are kept apart here.

Tests used:
mu opioid receptor (MOR) [1] = biological target: T1, mu opioid receptor (MOR) (Homo sapiens, UniProt P35372); assay: MOR cAMP agonist assay
[2] = biological target: T2, kappa opioid receptor (KOR) (Homo sapiens, UniProt P41145); assay: cell-based; details: after activation with dynorphin B
T2 construct: host or cells: CHO-K1
Source text: KOR cAMP Antagonist Assay

mu opioid receptor (MOR) [3] = biological target: T1, mu opioid receptor (MOR); assay: MOR GTPγS agonist assay; assay type: biochemical; parameters: host or cells: CHO-K1; details: membranes of CHO cells over-expressing MOR; SPA beads; read-out: MOR GTPγS EC50
Source text: Membranes obtained from the stable cell lines over-expressing MOR were subjected to GTPγS assay using SPA beads (Perkin Elmer, Cat #RPNQ0001).

[4] = kOR cAMP IC50, CHO-K1 cells expressing kOR

T1 sequence (P35372 whole entry): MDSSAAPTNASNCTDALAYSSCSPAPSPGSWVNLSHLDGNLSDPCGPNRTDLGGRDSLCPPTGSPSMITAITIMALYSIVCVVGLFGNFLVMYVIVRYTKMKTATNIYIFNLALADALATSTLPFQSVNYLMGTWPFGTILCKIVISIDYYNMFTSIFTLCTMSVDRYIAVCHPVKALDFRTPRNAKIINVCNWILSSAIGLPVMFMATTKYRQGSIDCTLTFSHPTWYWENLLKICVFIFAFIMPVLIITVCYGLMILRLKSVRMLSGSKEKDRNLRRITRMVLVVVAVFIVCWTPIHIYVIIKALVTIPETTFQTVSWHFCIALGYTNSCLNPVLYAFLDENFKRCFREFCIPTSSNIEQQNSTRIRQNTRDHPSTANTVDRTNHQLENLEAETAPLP
T2 sequence (P41145 whole entry): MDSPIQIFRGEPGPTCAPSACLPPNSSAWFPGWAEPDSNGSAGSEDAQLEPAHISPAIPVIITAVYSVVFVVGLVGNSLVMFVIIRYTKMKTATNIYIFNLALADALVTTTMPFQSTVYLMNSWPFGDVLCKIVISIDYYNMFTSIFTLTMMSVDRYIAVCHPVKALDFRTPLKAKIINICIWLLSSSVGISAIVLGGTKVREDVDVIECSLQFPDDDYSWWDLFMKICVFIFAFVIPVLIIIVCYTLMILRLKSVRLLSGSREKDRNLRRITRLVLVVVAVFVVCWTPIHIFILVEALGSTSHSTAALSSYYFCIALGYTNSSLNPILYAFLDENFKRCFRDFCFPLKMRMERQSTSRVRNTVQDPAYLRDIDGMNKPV

Compound | EC50 (mu opioid receptor (MOR) [1]) | IC50 [2, 4] | IC50 ([2]; CHO-K1 cells expressing kOR, read-out: kOR cAMP IC50) | EC50 (mu opioid receptor (MOR) [3])
CN(C)[C@H](CNC(=O)[C@H]1CCCN1c1ccccc1)Cc1ccc(C(N)=O)cc1 [Compound B-9, (R)—N—((S)-3-(4-carbamoylphenyl)-2-(dimethylamino)propyl)-1-phenylpyrrolidine-2-carboxamide] | 100 to 1000 nM | > 1000 nM | – | –
Cc1cc(C(N)=O)cc(C)c1C[C@@H](CNC(=O)C[C@@H](C)c1ccccc1)N(C)C [Compound A-11, 4-((S)-2-(dimethylamino)-3-((R)-3-phenylbutanamido)propyl)-3,5-dimethylbenzamide] | > 1000 nM | 100 to 1000 nM | – | –
CN(C)[C@H](CNC(=O)[C@@H]1C[C@]1(C)c1ccccc1)Cc1ccc(C(N)=O)cc1Cl [Compound B-7, 3-chloro-4-((S)-2-(dimethylamino)-3-((1R,2S)-2-methyl-2-phenylcyclopropane-1-carboxamido)propyl)benzamide] | < 100 nM | < 100 nM | – | –
CN(C)[C@H](CNC(=O)[C@@H]1C[C@]1(C)c1ccccc1)Cc1ccc(C(N)=O)cc1 [Compound B-5, 4-((S)-2-(dimethylamino)-3-((1R,2S)-2-methyl-2-phenylcyclopropane-1-carboxamido)propyl)benzamide] | < 100 nM | < 100 nM | – | –
CN(C)[C@H](CNC(=O)[C@@H]1C[C@@]1(C)c1ccccc1)Cc1ccc(O)cc1Cl [Compound B-1, (1R,2R)—N—((S)-3-(2-chloro-4-hydroxyphenyl)-2-(dimethylamino)propyl)-2-methyl-2-phenylcyclopropane-1-carboxamide] | < 100 nM | < 100 nM | – | –
C[C@H](NC(=O)NC[C@H](Cc1ccc(C(N)=O)cc1)N(C)C)c1ccccc1 [Compound A-1, 4-((S)-2-(dimethylamino)-3-(3-((S)-1-phenylethyl)ureido)propyl) benzamide] | > 1000 nM | 100 to 1000 nM | – | –
CN(C)[C@H](CNC(=O)[C@@H]1CCCN1c1ccccc1)Cc1ccc(C(N)=O)cc1 [Compound B-10, (S)—N—((S)-3-(4-carbamoylphenyl)-2-(dimethylamino)propyl)-1-phenylpyrrolidine-2-carboxamide] | 100 to 1000 nM | 100 to 1000 nM | – | –
CN(C)[C@H](CNC(=O)[C@H]1C[C@@]1(C)c1ccccc1)Cc1ccc(O)cc1 [Compound B-11, (1S,2R)—N—((S)-2-(dimethylamino)-3-(4-hydroxyphenyl)propyl)-2-methyl-2-phenylcyclopropane-1-carboxamide] | 100 to 1000 nM | > 1000 nM | – | –
Cc1cc(C(N)=O)cc(C)c1C[C@@H](CNC(=O)N[C@H](c1ccccc1)C1CC1)N(C)C [Compound A-9, 4-((S)-3-(3-((S)-cyclopropyl(phenyl)methyl)ureido)-2-(dimethylamino)propyl)-3,5-dimethylbenzamide] | > 1000 nM | – | > 1000 nM | –
CN(C)[C@H](CNC(=O)[C@@H]1C[C@@]1(C)c1ccccc1)Cc1ccc(C(N)=O)cc1 [Compound B-3, 4-((S)-2-(dimethylamino)-3-((1R,2R)-2-methyl-2-phenylcyclopropane-1-carboxamido)propyl)benzamide] | < 100 nM | > 1000 nM | – | –
C[C@H](OC(=O)NC[C@H](Cc1ccc(C(N)=O)cc1)N(C)C)c1ccccc1 [Compound A-3, (S)-1-phenylethyl ((S)-3-(4-carbamoylphenyl)-2-(dimethylamino)propyl) carbamate] | < 100 nM | > 1000 nM | – | –
Cc1cc(C(N)=O)cc(C)c1C[C@H](N)CNC(=O)N[C@H](c1ccccc1)C1CC1 [Compound A-6, 4-((S)-2-amino-3-(3-((S)-cyclopropyl(phenyl)methyl)ureido)propyl)-3,5-dimethylbenzamide] | 100 to 1000 nM | 100 to 1000 nM | – | –
Cc1cc(C(N)=O)cc(C)c1C[C@@H](CNC(=O)[C@@H]1C[C@@]1(C)c1ccccc1)N(C)C [Compound B-8, 4-((S)-2-(dimethylamino)-3-((1R,2R)-2-methyl-2-phenylcyclopropane-1-carboxamido)propyl)-3,5-dimethylbenzamide] | < 100 nM | 100 to 1000 nM | – | –
CNC(=O)c1cc(C)c(C[C@@H](CNC(=O)c2ccccc2)N(C)C)c(C)c1 [Compound C-45] | – | > 1000 nM | – | < 100 nM
Cc1cc(C[C@@H](CNC(=O)[C@@H]2C[C@]2(C)c2ccccc2)N(C)CC2CC2)ccc1O [Compound B-40, (1R,2S)—N—((S)-2-((cyclopropylmethyl)(methyl)amino)-3-(4-hydroxy-3-methylphenyl)propyl)-2-methyl-2-phenylcyclopropane-1-carboxamide] | < 100 nM | > 1000 nM | – | –
Cc1cc(C(N)=O)cc(C)c1C[C@@H](CNC(=O)O[C@@H](C)c1ccccc1)N(C)C [Compound A-7, (S)-1-phenylethyl ((S)-3-(4-carbamoyl-2,6-dimethylphenyl)-2-(dimethylamino)propyl)carbamate] | > 1000 nM | 100 to 1000 nM | – | –

Compound | EC50 (mu opioid receptor (MOR) [1]) | IC50 [2, 4] | IC50 ([2]; CHO-K1 cells expressing kOR, read-out: kOR cAMP IC50) | EC50 (mu opioid receptor (MOR) [3])
Cc1cc(O)cc(C)c1C[C@@H](CNC(=O)[C@@H]1C[C@@]1(C)c1ccccc1)N(C)C [Compound B-13, (1R,2R)—N—((S)-2-(dimethylamino)-3-(4-hydroxy-2,6-dimethylphenyl)propyl)-2-methyl-2-phenylcyclopropane-1-carboxamide] | < 100 nM | < 100 nM | – | –
CN(C)[C@H](CNC(=O)[C@@H]1C[C@]1(C)c1ccccc1)Cc1ccc(C(=O)NC2CC2)c(F)c1 [Compound B-39, N-cyclopropyl-4-((S)-2-(dimethylamino)-3-((1R,2S)-2-methyl-2-phenylcyclopropane-1-carboxamido)propyl)-2-fluorobenzamide] | < 100 nM | > 1000 nM | – | –
CN(C)[C@H](CNC(=O)[C@@H]1C[C@@]1(C)c1ccccc1)Cc1c(F)cc(O)cc1F [Compound B-14, (1R,2R)—N—((S)-3-(2,6-difluoro-4-hydroxyphenyl)-2-(dimethylamino)propyl)-2-methyl-2-phenylcyclopropane-1-carboxamide] | < 100 nM | > 1000 nM | – | –
CN(C)[C@H](CNC(=O)[C@@H]1C[C@]1(C)c1ccccc1)Cc1cc2cn[nH]c2cc1Cl [Compound B-54, (1R,2S)—N—((S)-3-(6-chloro-2H-indazol-5-yl)-2-(dimethylamino)propyl)-2-methyl-2-phenylcyclopropane-1-carboxamide] | < 100 nM | 100 to 1000 nM | – | –
CN(C)[C@H](CNC(=O)[C@@H]1C[C@]1(C)c1ccccc1)Cc1cc(F)c(O)c(Cl)c1 [Compound B-24, (1R,2S)—N—((S)-3-(3-chloro-5-fluoro-4-hydroxyphenyl)-2-(dimethylamino)propyl)-2-methyl-2-phenylcyclopropane-1-carboxamide] | – | 100 to 1000 nM | – | –
C[C@H](CC(=O)NC[C@H](Cc1ccc(C(N)=O)cc1)N(C)C)c1ccccc1 [Compound A-10, 4-((S)-2-(dimethylamino)-3-((R)-3-phenylbutanamido)propyl)benzamide] | – | 100 to 1000 nM | – | –
CN(CC(F)(F)F)[C@H](CNC(=O)[C@@H]1C[C@]1(C)c1ccccc1)Cc1ccc(C(=O)NC2CC2)c(F)c1 [Compound B-29, N-cyclopropyl-2-fluoro-4-((S)-2-(methyl(2,2,2-trifluoroethyl)amino)-3-((1R,2S)-2-methyl-2-phenylcyclopropane-1-carboxamido)propyl)benzamide] | < 100 nM | – | – | –
CNC(=O)c1c(F)cc(C[C@@H](CNC(=O)[C@@H]2C[C@]2(C)c2ccccc2)N(C)C)cc1F [Compound B-27, 4-((S)-2-(dimethylamino)-3-((1R,2S)-2-methyl-2-phenylcyclopropane-1-carboxamido)propyl)-2,6-difluoro-N-methylbenzamide] | < 100 nM | – | – | –
CN(C)[C@H](CNC(=O)[C@H]1C[C@@H]1c1ccccc1)Cc1ccc(O)cc1 [Compound B-18, (1S,2S)—N—((S)-2-(dimethylamino)-3-(4-hydroxyphenyl)propyl)-2-phenylcyclopropane-1-carboxamide] | – | 100 to 1000 nM | – | –
CN1Cc2cc(O)ccc2C[C@H]1CNC(=O)[C@@H]1C[C@@]1(C)c1ccccc1 [Compound B-51, (1R,2R)—N—(((S)-7-hydroxy-2-methyl-1,2,3,4-tetrahydroisoquinolin-3-yl)methyl)-2-methyl-2-phenylcyclopropane-1-carboxamide] | < 100 nM | – | – | –
CCNC(=O)c1ccc(C[C@@H](CNC(=O)[C@@H]2C[C@@]2(C)c2ccccc2)N(C)C)cc1F [Compound B-23, 4-((S)-2-(dimethylamino)-3-((1R,2R)-2-methyl-2-phenylcyclopropane-1-carboxamido)propyl)-N-ethyl-2-fluorobenzamide] | < 100 nM | – | – | –
CN(C)[C@H](CNC(=O)[C@@H]1C[C@@]1(C)c1ccccc1)Cc1ccc(O)cc1F [Compound B-44, (1R,2R)—N—((S)-2-(dimethylamino)-3-(2-fluoro-4-hydroxyphenyl)propyl)-2-methyl-2-phenylcyclopropane-1-carboxamide] | – | > 1000 nM | – | –
Cc1ccc(C(=O)NC[C@H](Cc2ccc(C(N)=O)cc2)N(C)C)c(C)c1 [Compound C-67, (S)—N-(3-(4-carbamoylphenyl)-2-(dimethylamino)propyl)-2,4-dimethylbenzamide] | – | > 1000 nM | – | < 100 nM
CNC(=O)c1cc(C)c(C[C@@H](CNC(=O)[C@@H]2C[C@@]2(C)c2ccccc2)N(C)C)cc1F [Compound B-26, 4-((S)-2-(dimethylamino)-3-((1R,2R)-2-methyl-2-phenylcyclopropane-1-carboxamido)propyl)-2-fluoro-N,5-dimethylbenzamide] | < 100 nM | – | – | –
CC[C@@]1(c2ccccc2)C[C@H]1C(=O)NC[C@H](Cc1ccc(C(=O)NC)c(F)c1)N(C)C [Compound B-21, 4-((S)-2-(dimethylamino)-3-((1R,2R)-2-ethyl-2-phenylcyclopropane-1-carboxamido)propyl)-2-fluoro-N-methylbenzamide] | < 100 nM | – | – | –
